Experimental data taken from article PMC9495676, “Evaluation of the Antimicrobial Properties of a Natural Peptide from Vespa mandarinia Venom and Its Synthetic Analogues as a Possible Route to Defeat Drug-Resistant Microbes” (Biology, 2022).
No end group written: not given here.

Tests used:
[1] = test system: K. pneumoniae (ATCC 43816); experiment: MIC/MBC broth dilution assay; assay type: cell-based, Klebsiella pneumoniae; conditions: 37 °C overnight, nine replicates from three independent experiments; for MIC: broth dilution, Mueller–Hinton broth, 5 × 10^5 CFU/mL, OD 550 nm
Protocol: (§1) The minimal inhibitory concentration assay (MIC) and minimum bactericidal concentration assay (MBC) of the peptide were carried out using the broth dilution method. Seven microbes, including the Gram-positive bacteria, S. aureus (NCTC 6538), MRSA, (ATCC 12493) and Enterococcus faecalis (E. faecalis) (NCTC 12697); Gram-negative bacteria, E. coli (ATCC 8739), Klebsiella pneumoniae (K. pneumoniae) (ATCC 43816) and Pseudomonas aeruginosa (P. aeruginosa) (ATCC 9027); and a yeast, C. albicans (ATCC 10231), were used in these assays and incubated with peptide at 37 °C overnight. The growth culture media were Yeast Extract Peptone Dextrose for C. albicans and Mueller–Hinton broth for others. The concentration of microbes was detected by measuring OD values through the use of a UV spectrophotometer set to 550 nm. C. albicans assays required 10^6 colony forming units (CFU)/mL, while others were incubated with 10^8 CFU/mL and verified by viable cell counts. All of the inocula were diluted to final concentrations of 5 × 10^5 CFU/mL. The concentration of peptides ranged from 1 µM to 512 µM (C = 1, 2, 4, 8, 16, 32, 64, 128, 256, 512 µM). Two mg/mL of amphotericin B for C. albicans and 2 mg/mL norfloxacin for others were applied as positive controls, and 1% of dimethyl sulphoxide (DMSO) was applied as a vehicle control. The 96-well plates were analysed at 550 nm using an ELISA plate reader (Biolise BioTek EL808, Winooski, VT, USA).
(§2) After analysing the growth situation of microbial cultures from each concentration, 10 µL of the inhibited cultures (the peptide concentration ranges from MIC to maximum concentration) were selected to sub-culture onto the Mueller–Hinton agar (MHA) plates. The plates were incubated overnight at 37 °C. After incubation, the lowest concentration on the MHA plates with no bacterial growth was regarded as the MBC value.

S. aureus (NCTC 6538) = experiment: MIC/MBC broth dilution assay; assay type: cell-based, Staphylococcus aureus; conditions: 37 °C overnight, nine replicates from three independent experiments; for MIC: broth dilution, Mueller–Hinton broth, 5 × 10^5 CFU/mL, OD 550 nm; for MBC: sub-culture of inhibited cultures on MHA
Protocol: as §1, §2

E. faecalis (NCTC 12697) = experiment: MIC/MBC broth dilution assay; assay type: cell-based, Enterococcus faecalis; conditions: 37 °C overnight, nine replicates from three independent experiments; for MIC: broth dilution, Mueller–Hinton broth, 5 × 10^5 CFU/mL, OD 550 nm; for MBC: sub-culture on MHA
Protocol: as §1, §2

MRSA biofilm = experiment: Antibiofilm assay (MBIC/MBEC), crystal violet; assay type: cell-based, methicillin-resistant Staphylococcus aureus; conditions: TSB, 595 nm, nine replicates from three independent experiments; for MBIC: MRSA biofilm inhibition; for MBEC: MRSA preformed 24 h biofilm, peptide 24 h at 37 °C
Protocol: (§3) The minimal biofilm inhibitory concentration assay (MBIC) and minimal biofilm eradication concentration assay (MBEC) were performed on each of the peptides using Gram-positive bacteria cultured in Tryptic Soy Broth (TSB, Sigma-Aldrich, St. Louis, MO, USA) and Gram-negative bacteria cultured in Luria-Bertani broth (LB, Thermo Fisher Scientific, Carlsbad, CA, USA). The seeding concentration in 96-well plates of bacterial suspension was the same as for the anti-bacterial assay, and a UV spectrophotometer set to 550 nm was used to detect OD values. Melittin was used as a positive control. For MBIC, peptide solution was mixed with bacterial suspension at first to test if it could inhibit the growth of biofilm. However, for minimal biofilm eradication (MBEC) assays, biofilm was formed in 96-well plates at 37 °C for 24 h after seeding bacteria; afterwards, it was washed by sterile PBS twice. Peptide solutions, prepared with culture broth, were added to […] the biofilms by incubating at 37 °C for 24 h. Both plates were washed by PBS twice and stained by 125 µL 0.1% crystal violet solution (Sigma-Aldrich, Gillingham, UK). The stain was dissolved in 150 µL 30% acetic acid (Sigma-Aldrich, Gillingham, UK). The absorbance values of 100 µL solution from each well, were analysed by using a Synergy HT plate reader (Biotech, Minneapolis, MN, USA) set at 595 nm.

E. coli (ATCC 8739) = experiment: MIC/MBC broth dilution assay; assay type: cell-based, Escherichia coli; conditions: 37 °C overnight, nine replicates from three independent experiments; for MIC: broth dilution, Mueller–Hinton broth, 5 × 10^5 CFU/mL, OD 550 nm; for MBC: sub-culture on MHA
Protocol: as §1, §2

horse erythrocytes = experiment: Haemolysis assay; assay type: cell-based; conditions: 37 °C, 2 h; for HC50 (peptide concentration that caused 50% lysis of horse red blood cells): 4% (v/v) defibrinated horse erythrocytes, 550 nm, normalised to 1% Triton X-100, calculated from the haemolysis curve
Protocol: Defibrinated horse erythrocytes (TCS Biosciences Ltd., Buckingham, UK) were used in the haemolysis assay. Peptides, from 1 μM to 512 μM, were tested with a 4% (v/v) erythrocyte suspension and were incubated at 37 °C for 2 h, while 1% Triton X-100 (Sigma-Aldrich, St. Louis, MO, USA) was acted as a positive control and phosphate-buffered saline (PBS) was used as a negative control. The sample supernatants were analysed at 550 nm on an ELISA plate reader (Biolise BioTek EL808, Winooski, VT, USA).

[2] = test system: P. aeruginosa (ATCC 9027); experiment: MIC/MBC broth dilution assay; assay type: cell-based, Pseudomonas aeruginosa; conditions: 37 °C overnight, nine replicates from three independent experiments; for MIC: broth dilution, Mueller–Hinton broth, 5 × 10^5 CFU/mL, OD 550 nm; for MBC: sub-culture on MHA
Protocol: as §1, §2

S. aureus biofilm = experiment: Antibiofilm assay (MBIC/MBEC), crystal violet; assay type: cell-based, Staphylococcus aureus; conditions: TSB, 595 nm, nine replicates from three independent experiments; for MBIC: S. aureus biofilm inhibition; for MBEC: S. aureus preformed 24 h biofilm, peptide 24 h at 37 °C
Protocol: as §3

MRSA (ATCC 12493) = experiment: MIC/MBC broth dilution assay; assay type: cell-based, methicillin-resistant Staphylococcus aureus; conditions: 37 °C overnight, nine replicates from three independent experiments; for MIC: broth dilution, Mueller–Hinton broth, 5 × 10^5 CFU/mL, OD 550 nm; for MBC: sub-culture on MHA
Protocol: as §1, §2

E. coli biofilm = experiment: Antibiofilm assay (MBIC/MBEC), crystal violet; assay type: cell-based, Escherichia coli; conditions: LB, 595 nm, nine replicates from three independent experiments; for MBIC: E. coli biofilm inhibition; for MBEC: E. coli preformed 24 h biofilm, peptide 24 h at 37 °C
Protocol: as §3

Gram-positive bacteria = experiment: MIC broth dilution assay, summary over Gram-positive bacteria; assay type: cell-based; conditions: range over S. aureus, MRSA, E. faecalis
Protocol: as §1, with “Two mg/mL of amphotericin B for C. albicans and 2 mg/mL norfloxacin for others were applied as positive controls, and 1% of dimethyl sulphoxide (DMSO) was applied as a vehicle control.” left out, “USA). […]” for “USA).”

K. pneumoniae biofilm = experiment: Antibiofilm assay (MBIC/MBEC), crystal violet; assay type: cell-based, Klebsiella pneumoniae; conditions: LB, 595 nm, nine replicates from three independent experiments; for MBIC: K. pneumoniae biofilm inhibition; for MBEC: K. pneumoniae preformed 24 h biofilm, peptide 24 h at 37 °C
Protocol: as §3

C. albicans (ATCC 10231) = experiment: MIC/MBC broth dilution assay; assay type: cell-based, Candida albicans; conditions: 37 °C overnight, nine replicates from three independent experiments; for MBC: sub-culture on agar plates; for MIC: broth dilution, Yeast Extract Peptone Dextrose, 5 × 10^5 CFU/mL, OD 550 nm
Protocol: as §1, §2

P. aeruginosa biofilm = experiment: Antibiofilm assay (MBIC/MBEC), crystal violet; assay type: cell-based, Pseudomonas aeruginosa; conditions: LB, 595 nm, nine replicates from three independent experiments; for MBIC: P. aeruginosa biofilm inhibition; for MBEC: P. aeruginosa preformed 24 h biofilm, peptide 24 h at 37 °C
Protocol: as §3

E. faecalis biofilm = experiment: Antibiofilm assay (MBIC/MBEC), crystal violet; assay type: cell-based, Enterococcus faecalis; conditions: TSB, 595 nm, nine replicates from three independent experiments; for MBIC: E. faecalis biofilm inhibition; for MBEC: E. faecalis preformed 24 h biofilm, peptide 24 h at 37 °C
Protocol: as §3

| Compound | MIC [1] [µM] | MIC (S. aureus (NCTC 6538)) [µM] | MBC (S. aureus (NCTC 6538)) | MIC (E. faecalis (NCTC 12697)) | MBC (E. faecalis (NCTC 12697)) [µM] | MBIC (MRSA biofilm) [µM] | MBEC (MRSA biofilm) [µM] | MIC (E. coli (ATCC 8739)) [µM] | HC50 (peptide concentration that caused 50% lysis of horse red blood cells) (horse erythrocytes) [µM] | MIC [2] [µM] | MBIC (S. aureus biofilm) [µM] | MBEC (S. aureus biofilm) [µM] | MBC (MRSA (ATCC 12493)) | MBIC (E. coli biofilm) | MBEC (E. coli biofilm) | MBIC (K. pneumoniae biofilm) | MBEC (K. pneumoniae biofilm) | MBIC (P. aeruginosa biofilm) | MBEC (P. aeruginosa biofilm) | MBIC (E. faecalis biofilm) [µM] | further results |
| --- | --- | --- | --- | --- | --- | --- | --- | --- | --- | --- | --- | --- | --- | --- | --- | --- | --- | --- | --- | --- | --- |
| FLPIIGKLLSGLL-NH2 [VM] | >512 | 4 | 4 µM | 16 µM | 16 | 8 | 64 | 256 | 44.43 | >512 | 8 | 64 | 4 µM | >512/>512 µM | >512/>512 µM | >512/>512 µM | >512/>512 µM | >512/>512 µM | >512/>512 µM | – | MBC (E. coli (ATCC 8739)): 256 µM; maximum concentration that caused less than 10% haemolysis (horse erythrocytes; 4% horse erythrocytes): 16 µM; MIC (MRSA (ATCC 12493)): 4 µM; MICs against Gram-positive bacteria (Gram-positive bacteria): 4 to 16 µM; MBC (C. albicans (ATCC 10231)): 32/32 µM |
| FLYIIGKLLSGLL-NH2 [VM-3Y] | >512 | – | 2/2 µM | 4 µM | 4 | 2 | 64 | >512 | 211.2 | >512 | 2 | 128 | 2/2 µM | >512/>512 µM | >512/>512 µM | >512/>512 µM | >512/>512 µM | >512/>512 µM | >512/>512 µM | 64 | MBEC (E. faecalis biofilm): > 512 µM; MIC (C. albicans (ATCC 10231)): >512 µM |
| FLGIIGKLLSGLL-NH2 [VM-3G] | >512 | 1 | 1 µM | 4 µM | 4 | 2 | 32 | 64 | 9.686 | 128 | 2 | 32 | 2 µM | 256 µM | > 512 µM | >512/>512 µM | >512/>512 µM | >512/>512 µM | >512/>512 µM | 8 | MBC (E. coli (ATCC 8739)): 128 µM; MBC [2]: 128 µM; MBEC (E. faecalis biofilm): > 512 µM; MIC (MRSA (ATCC 12493)): 2 µM; MIC (C. albicans (ATCC 10231)): >512 µM |
| FLKIIGKLLSGLL-NH2 [VM-3K] | 32 | 1 | 1 µM | 2/2 µM | – | 2 | 64 | 8 | 11.2 | 16 | 2 | 32 | 2 µM | 16 µM | > 512 µM | 64 µM | > 512 µM | 32 µM | > 512 µM | 4 | MBC ([1]; sub-culture on MHA): 32 µM; MBC (E. coli (ATCC 8739)): 8 µM; MBC [2]: 16 µM; MBEC (E. faecalis biofilm): > 512 µM; MIC (MRSA (ATCC 12493)): 1 µM; MIC (C. albicans (ATCC 10231)): 32 µM; MBC (C. albicans (ATCC 10231)): 32 µM |
| FLWIIGKLLSGLL-NH2 [VM-3W] | >512 | 1 | 1 µM | 4 µM | 4 | 4 | 128 | >512 | 9.682 | >512 | 4 | 128 | 2 µM | >512/>512 µM | >512/>512 µM | >512/>512 µM | >512/>512 µM | >512/>512 µM | >512/>512 µM | 16 | MBEC (E. faecalis biofilm): > 512 µM; MIC (MRSA (ATCC 12493)): 2 µM; MIC (C. albicans (ATCC 10231)): >512 µM |
| CC[C@H](C)[C@H](NC(=O)CN)C(=O)NCC(=O)N[C@@H](C)C(=O)N[C@H](C(=O)N[C@@H](CC(C)C)C(=O)N[C@@H](CCCCN)C(=O)N[C@H](C(=O)N[C@@H](CC(C)C)C(=O)N[C@H](C(=O)N[C@H](C(=O)NCC(=O)N[C@@H](CC(C)C)C(=O)N1CCC[C@H]1C(=O)N[C@@H](C)C(=O)N[C@@H](CC(C)C)C(=O)N[C@H](C(=O)N[C@@H](CO)C(=O)N[C@@H](Cc1c[nH]c2ccccc12)C(=O)N[C@H](C(=O)N[C@@H](CCCCN)C(=O)N[C@@H](CCCNC(=N)N)C(=O)N[C@@H](CCCCN)C(=O)N[C@@H](CCCNC(=N)N)C(=O)N[C@@H](CCC(N)=O)C(=O)N[C@@H](CCC(N)=O)C(N)=O)[C@@H](C)CC)[C@@H](C)CC)[C@@H](C)O)[C@@H](C)O)C(C)C)C(C)C [Melittin, reference compound] | – | – | – | – | – | 8 | – | – | – | – | 4 | – | – | 32 µM | – | 128 µM | – | 64 µM | – | 8 | – |
